For series [1] the following is noted: for Solubility ratio to FB: FB: drug alone; for Solubility ratio to FB: FB/AT: drug with tartaric acid; for Solubility ratio to FB: FB/AT/βCD / Water solubility, drug concentration F: FB/AT/βCD: drug/tartaric acid/β-CD multicomponent complex; for Water solubility, drug concentration F: FB/βCD: drug/β-cyclodextrin complex; for Water solubility, drug concentration F: FB/DIMEB: drug/DIMEB complex; for Water solubility, drug concentration F: FB/HPβ-CD: drug/HPβ-CD complex; for Water solubility, drug concentration F: FB/RAMEB: drug/RAMEB complex; for Water solubility, drug concentration F: FB/α-CD: drug/α-CD complex; for Water solubility, drug concentration F: FB/γ-CD: drug/γ-CD complex.

A short description of series [2]: physchem. Conditions: water.
For series [3] the following is noted: simultaneous administration of citric acid; Tokumura et al.; cited from earlier work.
Series [4] can be described thus: Effect of some acids on the β-CD solubility. Type of series: physicochemical. On the procedure:
In a test tube 1000 mg of β-CD in 5 ml of a solution having different concentrations of an acid selected from tartaric, citric, lactic acid, were let to equilibrate for two days at 28*/-2° C. under stirring. The solution was filtered and β-CD concentration was determined by HPLC.

For series [5] the following is noted: 1 mmol terfenadine, 15 ml water, 6 mmol acetic or 4 mmol formic acid.
For series [6] the following is noted: acidic conditions; Kikuchi et al.; cited from earlier work.
Setting [7] is: drug concentration F: FB, Table 1, basic-type drug alone, room temperature.
[8] abbreviates: drug concentration F: FB, Table 3, basic-type drug alone.
The mark [9] stands for this setting: drug concentration F: FB/AT, Table 1, drug with tartaric acid, room temperature.
Where [10] appears, read: Table 1, drug tartrate in β-CD solution, room temperature.

In brackets after ≈: the same amount, converted by molar mass. Read-outs that look alike come from different tables or passages of the source.

As a reminder, the solubility is the dissolved amount per volume that the medium holds. A higher solubility goes with much dissolved substance. As to `O=c1[nH]c2ccccc2n1CCCN1CCC(n2c(=O)[nH]c3cc(Cl)ccc32)CC1` [Domperidone], in series [1] (Table 1), the “Solubility ratio to FB: FB” value came out at 1 x, the “Solubility ratio to FB: FB/AT” value is listed as 2000 x and the “Solubility ratio to FB: FB/AT/βCD” value is reported as 5000 x. Further, in series [1] (Table 1, room temperature), the “Water solubility, drug concentration F: FB/AT/βCD” value (“Water solubility … FB/AT/βCD” below) worked out at 25000 µg/mL and the “Water solubility, drug concentration F: FB/βCD” value (from here on “Water solubility … FB/βCD”) was 22 µg/mL. For the same compound, the “Solubility ratio to FB: FB/βCD” value in series [1] (Table 1, drug/β-CD complex) is reported as 4.4 x. Besides, in series [1] (Table 3), the “Solubility ratio to FB: FB/AT/DIMEB” value came to 600 x, the “Solubility ratio to FB: FB/AT/HPβ-CD” value turned out to be 10000 x, the “Solubility ratio to FB: FB/AT/RAMEB” value is 6000 x and the “Solubility ratio to FB: FB/AT/α-CD” value came to 5000 x. In addition, in series [1] (Table 3), the “Solubility ratio to FB: FB/AT/γ-CD” value worked out at 6000 x, the “Solubility ratio to FB: FB/DIMEB” value is reported as 112 x, the “Solubility ratio to FB: FB/HPβ-CD” value worked out at 32 x and the “Solubility ratio to FB: FB/RAMEB” value is 56 x. Moreover, in series [1] (Table 3), the “Solubility ratio to FB: FB/α-CD” value was 6.6 x; the “Solubility ratio to FB: FB/γ-CD” value is 8 x; the “Water solubility, drug concentration F: FB/DIMEB” value stood at 560 µg/mL; the “Water solubility, drug concentration F: FB/HPβ-CD” value came to 160 µg/mL. In series [1] (Table 3), the “Water solubility, drug concentration F: FB/RAMEB” value was 280 µg/mL; the “Water solubility, drug concentration F: FB/α-CD” value stood at 33 µg/mL; the “Water solubility, drug concentration F: FB/γ-CD” value turned out to be 40 µg/mL. Moreover, in series [1] (Table 3, drug/tartaric acid/DIMEB multicomponent complex), the “Water solubility, drug concentration F: FB/AT/DIMEB” value was determined as 30000 µg/mL. For the same compound, in series [1] (Table 3, drug/tartaric acid/HPβ-CD multicomponent complex), the “Water solubility, drug concentration F: FB/AT/HPβ-CD” value worked out at 50000 µg/mL. In series [1] (Table 3, drug/tartaric acid/RAMEB multicomponent complex), the “Water solubility, drug concentration F: FB/AT/RAMEB” value turned out to be 30000 µg/mL. In series [1] (Table 3, drug/tartaric acid/α-CD multicomponent complex), the “Water solubility, drug concentration F: FB/AT/α-CD” value worked out at 25000 µg/mL. For the same compound, the “Water solubility, drug concentration F: FB/AT/γ-CD” value in series [1] (Table 3, drug/tartaric acid/γ-CD multicomponent complex) was 30000 µg/mL. Also, the concentration in solution in series [2] (setting [7]) (solubility) was 5 µg/mL (≈ 11.7 µM). In series [2] (setting [8]), this compound showed a solubility of 5 µg/mL (≈ 11.7 µM). The concentration in solution in series [2] (setting [9]) (solubility) was 10000 µg/mL (≈ 23500 µM).
`C(=C\c1ccccc1)/CN1CCN(C(c2ccccc2)c2ccccc2)CC1` [Cinnarizine]: the “Difference in bioavailability between cinnarizine + citric acid and its β-cyclodextrin complex + citric acid” value in series [3] is listed as “no significant difference”.
As for `OC[C@H]1O[C@@H]2O[C@H]3[C@H](O)[C@@H](O)[C@@H](O[C@H]4[C@H](O)[C@@H](O)[C@@H](O[C@H]5[C@H](O)[C@@H](O)[C@@H](O[C@H]6[C@H](O)[C@@H](O)[C@@H](O[C@H]7[C@H](O)[C@@H](O)[C@@H](O[C@H]8[C@H](O)[C@@H](O)[C@@H](O[C@H]1[C@H](O)[C@H]2O)O[C@@H]8CO)O[C@@H]7CO)O[C@@H]6CO)O[C@@H]5CO)O[C@@H]4CO)O[C@@H]3CO` [β-CD], the β-CD concentration in series [4] (citric acid 0 mg/ml, 2880 min) turned out to be 18.3 mg/mL; in series [4] (citric acid 9.6 mg/ml, 2880 min), 34.1 mg/mL; in series [4] (citric acid 19.2 mg/ml, 2880 min), 47.9 mg/mL; in series [4] (citric acid 48.0 mg/ml), 86.1 mg/mL; in series [4] (citric acid 96.0 mg/ml, 2880 min), 140.1 mg/mL; in series [4] (citric acid 144.0 mg/ml, 2880 min), 195.7 mg/mL. In addition, the β-CD concentration in series [4] (lactic acid 0 mg/ml, 2880 min) was determined as 18.3 mg/mL; in series [4] (lactic acid 9.0 mg/ml, 2880 min), 18.8 mg/mL; in series [4] (lactic acid 22.5 mg/ml, 2880 min), 24.2 mg/mL; in series [4] (lactic acid 67.5 mg/ml, 2880 min), 35.8 mg/mL; in series [4] (tartaric acid 0 mg/ml, 2880 min), 18.3 mg/mL; in series [4] (tartaric acid 15.0 mg/ml, 2880 min), 31.4 mg/mL. In series [4] (tartaric acid 112.5 mg/ml, 2880 min), this compound showed a β-CD concentration of 83.7 mg/mL. The “Effect of tartaric and citric acid on water solubility of β-CD” value in series [4] (depending on acid concentration) was “remarkably enhance the water solubility”. The “Effect of lactic acid on water solubility of β-CD” value in series [4] (lactic acid, compared with tartaric and citric acid) was “lower effect”. In series [4] (tartaric 11 and citric 17 mg/ml respectively), the “Increase of the β-CD solubility in the binary system acid-β-CD” value is given as “about 2 times”.
Turning to `CC(=O)N1CCN(c2ccc(OCC3COC(Cn4ccnc4)(c4ccc(Cl)cc4Cl)O3)cc2)CC1` (stereo not drawn) [Ketoconazole], in series [1] (setting [10]), the “Water solubility, drug concentration F: FT/βCD” value worked out at 21000 µg/mL. Further, in series [1] (Table 1, room temperature), the “Water solubility … FB/AT/βCD” value is 110000 µg/mL and the “Water solubility … FB/βCD” value came out at 1240 µg/mL. Further, in series [2] (setting [7]), the concentration in solution (solubility) was 50 µg/mL (≈ 94.1 µM). This compound also displayed a solubility in series [2] (setting [9]) of 21000 µg/mL (≈ 39500 µM).
For `CC(C)(C)c1ccc(C(O)CCCN2CCC(C(O)(c3ccccc3)c3ccccc3)CC2)cc1` (stereo not drawn) [Terfenadine], the “Dissolution attempt with acid without cyclodextrin” value in series [5] is “not successful”.
With `COc1ccc(CCN2CCC(Nc3nc4ccccc4n3Cc3ccc(F)cc3)CC2)cc1` [Astemizole], in series [1] (Table 1), the “Solubility ratio to FB: FB” value was determined as 1 x, the “Solubility ratio to FB: FB/AT” value came to 817.5 x and the “Solubility ratio to FB: FB/AT/βCD” value is 22500 x. Further, in series [1] (Table 1, drug tartrate in β-CD solution), the “Solubility ratio to FB: FT/βCD” value came to 1975 x. For the same compound, the “Water solubility, drug concentration F: FT/βCD” value in series [1] (setting [10]) was determined as 7900 µg/mL. In series [1] (Table 1, room temperature), the “Water solubility … FB/AT/βCD” value turned out to be 90000 µg/mL and the “Water solubility … FB/βCD” value amounted to 65 µg/mL. Further, the “Solubility ratio to FB: FB/βCD” value in series [1] (Table 1, drug/β-CD complex) came out at 16 x. Further, in series [1] (Table 3), the “Solubility ratio to FB: FB/DIMEB” value came to 303 x, the “Solubility ratio to FB: FB/HPβ-CD” value came to 86 x, the “Solubility ratio to FB: FB/RAMEB” value was determined as 275 x and the “Solubility ratio to FB: FB/α-CD” value was found to be 6 x. Further, in series [1] (Table 3), the “Solubility ratio to FB: FB/γ-CD” value turned out to be 6.6 x; the “Water solubility, drug concentration F: FB/DIMEB” value worked out at 1245 µg/mL; the “Water solubility, drug concentration F: FB/HPβ-CD” value worked out at 353 µg/mL; the “Water solubility, drug concentration F: FB/RAMEB” value was 1100 µg/mL. In series [1] (Table 3), the “Water solubility, drug concentration F: FB/α-CD” value was 24 µg/mL and the “Water solubility, drug concentration F: FB/γ-CD” value was 27 µg/mL. Besides, the solubility in series [2] (setting [7]) was determined as 4 µg/mL (≈ 8.72 µM). In series [2] (setting [8]), this compound returned a solubility of 4 µg/mL (≈ 8.72 µM). In series [2] (setting [9]), this compound registered a solubility of 3270 µg/mL (≈ 7130 µM).
In the case of `CCCCCCNC(=O)n1cc(F)c(=O)[nH]c1=O` [HCFU, 1-hexylcarbamoyl-5-fluorouracil], the Chemical stability result in series [6] was “chemically stable under acidic conditions”.
With `CCN(CC)CCOc1ccc(C(=C(Cl)c2ccccc2)c2ccccc2)cc1` [Clomifene], the “Solubility ratio to FB: FB” value in series [1] (Table 2) amounted to 1 x. Besides, the “Solubility ratio to FB: FC/βCD” value in series [1] (Table 2, drug citrate in β-CD solution) worked out at 500 x. Moreover, in series [1] (Table 2, drug citrate in β-CD solution, room temperature), the “Water solubility, drug concentration F: FC/βCD” value was found to be 20000 µg/mL. Also, in series [1] (Table 2, drug with citric acid), the “Solubility ratio to FB: FB/AC” value is on record as 155 x. In addition, in series [1] (Table 2, drug/citric acid/β-CD multicomponent complex), the “Solubility ratio to FB: FB/AC/βCD” value turned out to be 1925 x. In addition, the “Water solubility, drug concentration F: FB/AC/βCD” value in series [1] (Table 2, drug/citric acid/β-CD multicomponent complex, room temperature) is 77000 µg/mL. The “Solubility ratio to FB: FB/CD” value in series [1] (Table 2, drug/β-CD complex) was found to be 7 x. Further, in series [1] (Table 2, drug/β-CD complex, room temperature), the “Water solubility, drug concentration F: FB/CD” value stood at 280 µg/mL. The solubility in series [2] (drug concentration F: FB, Table 2, basic-type drug alone, room temperature) came out at 40 µg/mL (≈ 98.5 µM); in series [2] (drug concentration F: FB/AC, Table 2, drug with citric acid, room temperature) it was 6200 µg/mL (≈ 15300 µM).

The values are drawn from patent publication US5855916A, “Highly soluble multicomponent inclusion complexes containing a base type drug, an acid and a cyclodextrin” (priority 1993, dated 1999).
